# US20150366890A1, “COMPOSITIONS AND METHODS FOR TREATING FUNGAL INFECTIONS” (TRUSTEES OF BOSTON UNIVERSITY, priority 2013, published 2015)
# Tests used:
# Type in all cases: cell-based
# [1] = tested on: S. cerevisiae wildtype and deletion strains; details: S. cerevisiae, 3 hours of drug exposure
# [2] = tested on: C. albicans; test: ROS formation by HPF fluorescence (flow cytometry); details: wildtype C. albicans, SDC, after 1.5 hours of treatment (CAS 0.5 μg/ml)
# Protocol: (§1) The formation of ROS following AF treatment in yeast was measured using the dye 3′-(p-hydroxyphenyl) fluorescein (HPF), which is preferentially oxidized by intracellular hydroxyl radicals into a fluorescent product (Kohanski et al., 2007). Exponentially growing wildtype S. cerevisiae and C. albicans were treated in synthetic dextrose complete (SDC) medium with the minimum concentration of fungicide required to achieve at least a 90% reduction in colony forming units (CFU) after three hours of exposure. As a positive control, cells were also treated with H2O2, a potent inducer of hydroxyl radical formation (Perrone et al., 2008).
# (§2) Overnight yeast cultures were diluted into the indicated media and grown to an OD600 of 0.2, at which point the AFs were added. Colony forming units (CFU) were measured by plating six serial dilutions onto YPD agar plates. Cells treated with MCZ were washed before serial dilution to stop growth inhibition associated with high concentrations of MCZ. CFU were counted after three days of incubation on agar plates. When indicated, thiourea (Fluka) was added 30 min prior to the addition of AFs. HPF (10 μM) (Invitrogen) and Mito Tracker (1 μM) (Invitrogen) dyes were added to PBS-washed cells at the indicated time points and incubated for 30 min prior to flow cytometry measurements, which were taken on the FACSCalibur (Becton-Dickinson). All experiments described in this section were conducted in 0.5 ml of SDC in 24-well plates incubated at 900 rpm and 37° C. for C. albicans and 30° C. and 300 rpm for S. cerevisiae. TUNEL assays were conducted as previously described (Ribeiro et al., 2006) and are described in detail in the TUNEL section of the Experimental Procedures.
# [3] = tested on: S. cerevisiae; test: ROS formation by HPF fluorescence (flow cytometry); details: wildtype S. cerevisiae, SDC, after 1.5 hours of treatment
# Protocol: as §1, §2
# [4] = tested on: C. albicans; test: TUNEL assay of DNA strand breaks (flow cytometry); details: after 2 hours of treatment
# Protocol: The terminal deoxynucleotidyl transferase dUTP nick-end labeling (TUNEL) assay was used to quantify the relative abundance of DSBs in C. albicans cells treated with AFs and H2O2. The TUNEL reagent fluorescently labels both double- and single-strand DNA breaks (Ribeiro et al., 2006).
# DNA strand breaks were fluorescently labeled with TUNEL reagent from the “In Situ Cell Death Detection Kit”, Roche (Mannheim, Germany). After 2 hours of treatment 5 ml of OD 0.2 cells were fixed with 3.7% formaldehyde for 30 min at room temperature, and then washed with digestion buffer consisting of 10 mM Mes pH 6.5 and 1 M sorbitol. Cell were digested for 45 min at 30° C. with 2 U of Yeast Lytic Enzyme, MP Biomedicals, (Irvine, Calif.) in 50 μl of digestion buffer. Cells were then washed in PBS with 1 M sorbitol and resuspended in permeabilization solution consisting of 0.1% Triton X-100 and 0.1% sodium citrate and 1 M sorbitol for 10 min at room temperature. Cell were again washed in PBS with 1 M sorbitol and labeled for 60 min with 10 μl of TUNEL reaction mixture. Cells were then again washed in PBS with 1 M sorbitol and resuspended in sheath fluid. Mean relative florescence was measured by flow cytometry on the FACSCalibur (Becton-Dickinson).
# [5] = tested on: C. albicans; test: Metabolomic profiling of intracellular metabolites (Metabolon)
# Protocol: The results described herein link AF treatment to distinct changes in intracellular metabolic activity as part of an induced common killing mechanism. To further explore the role of metabolism in AF-induced cellular death, the effect of AF treatment on the intracellular metabolome of C. albicans was measured. To do so, a platform for metabolite detection and relative quantification from Metabolon Inc. (Durham, USA) (Evans et al., 2009) was utilized. Exponentially growing C. albicans cells were treated with AFs and samples collected for metabolomic analysis after 1.5 hours of treatment, a time point when it was expected that at least 90% of cells contributing to the metabolite pool would be irreversibly committed to the death pathway (FIGS. 7A-7D).
# C. albicans cells were lysed and assayed by Metabolon Inc. (Durham, USA) as previously described (Shakoury-Elizeh et al., 2010). ATP and AMP were extracted as previously described (Walther et al., 2010) and analyzed by HPLC. This procedure is more fully described elsewhere herein.
# C. albicans cells were incubated in 100 ml of SDC in 250 ml flasks at 37° C. and 300 rpm. Cells were exposed to AFs at an OD600 of 0.2, and cellular pellets from 100 ml of media were collected after 1.5 h of treatment. Cells were lysed and assayed by Metabolon Inc. (Durham, USA) as previously described (Evans et al., 2009; Shakoury-Elizeh et al., 2010).
SMILES,susceptibility of rad50 and rad52 knockouts vs wildtype [1],HPF fluorescence (formation of ROS) [2],HPF fluorescence (formation of ROS) [3],TUNEL relative fluorescence (DNA breaks) [4],"intracellular sugars (fructose, mannose, trehalose) abundance vs control ([5]; 1.5 hours of treatment)","fermentative waste products (2,3-butanediol and glycerol) ([5]; 1.5 hours of treatment, vs untreated)","metabolic changes compared with those induced by AMB, MCZ and CIC ([5]; CAS 0.5 μg/ml, 1.5 hours)"
OO [H2O2],considerably more susceptible,dramatic induction of HPF fluorescence,dramatic induction of HPF fluorescence,elevated relative fluorescence,–,–,–
CC[C@H](C)C[C@H](C)CCCCCCCCC(=O)N[C@H]1C[C@@H](O)[C@@H](NCCN)NC(=O)[C@@H]2[C@@H](O)CCN2C(=O)[C@H]([C@H](O)CCN)NC(=O)[C@H]([C@H](O)[C@@H](O)c2ccc(O)cc2)NC(=O)[C@@H]2C[C@@H](O)CN2C(=O)[C@H]([C@@H](C)O)NC1=O [caspofungin],–,elevated ROS levels,–,–,elevation of sugars,reduction in fermentative byproducts,similar
